Counter-ions that a name gives are not always drawn.
Molecular target: T1, PHD2 (Homo sapiens, UniProt Q9GZT9)
T1 construct: FLAG-tagged full length PHD2 expressed in and purified from baculovirus-infected Sf9 cells; FLAG; made in house; host or cells: baculovirus-infected Sf9 cells
Test: PHD2 / HIF-1α peptide hydroxylation assay, time resolved fluorescence (VHL complex detection)
Type: biochemical
Conditions: FLAG-tagged full length PHD2; 0.2 μM 2-oxoglutarate, 0.5 μM HIF-1α peptide; read-out: PHD2 Activity (PHD2 binding activity expressed as IC50 (nM))
How it was run: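 Sf9-expressed FLAG-tagged full-length PHD2 (0.15 μg/ml) preincubated with compound 30 min at room temperature in Tris pH 7.4 buffer with 10 μM ferrous sulfate, 1 mM ascorbate and catalase. Reaction started with 0.2 μM 2-oxoglutarate and 0.5 μM biotinylated HIF-1α peptide (final); hydroxylation detected by time-resolved fluorescence via VHL complex binding.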

T1 sequence (Q9GZT9 whole entry): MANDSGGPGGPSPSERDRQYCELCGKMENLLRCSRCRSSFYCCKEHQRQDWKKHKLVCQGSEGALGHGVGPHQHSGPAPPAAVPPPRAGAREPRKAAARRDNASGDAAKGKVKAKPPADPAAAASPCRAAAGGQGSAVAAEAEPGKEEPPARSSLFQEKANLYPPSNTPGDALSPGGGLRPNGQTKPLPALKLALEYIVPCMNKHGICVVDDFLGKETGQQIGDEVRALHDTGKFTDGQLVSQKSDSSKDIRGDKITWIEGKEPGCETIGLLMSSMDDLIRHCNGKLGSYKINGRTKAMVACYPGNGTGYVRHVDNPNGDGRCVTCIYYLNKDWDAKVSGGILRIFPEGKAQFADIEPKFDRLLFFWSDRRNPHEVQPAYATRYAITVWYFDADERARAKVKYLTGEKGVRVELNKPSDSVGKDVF

| Compound | IC50 |
| --- | --- |
| C[C@@H](NC(=O)c1cnc(-n2cccn2)nc1O)C1CCCCC1 [Example 84, N-[(1R)-1-cyclohexylethyl]-4-hydroxy-2-(1H-pyrazol-1-yl)pyrimidine-5-carboxamide] | 10 to 100 nM |
| O=C(NCc1ccc(C(F)(F)F)cc1)c1cnc(-c2cnccn2)nc1O [Example 20, 4-Hydroxy-2-pyrazin-2-yl-N-[4-(trifluoromethyl)benzyl]pyrimidine-5-carboxamide] | 10 to 100 nM |
| Cc1nc(-c2ncc(C(=O)NC(C)(C)C)c(O)n2)cs1 [Example 40, N-(tert-butyl)-4-hydroxy-2-(2-methyl-1,3-thiazol-4-yl)pyrimidine-5-carboxamide] | 100 to 1000 nM |
| O=C(NCc1ccc(C(F)(F)F)cn1)c1cnc(-n2cccn2)nc1O [Example 130, 4-hydroxy-2-(1H-pyrazol-1-yl)-N-{[5-(trifluoromethyl)pyridin-2-yl]methyl}pyrimidine-5-carboxamide] | 10 to 100 nM |
| CC[C@H](NC(=O)c1cnc(-c2nc(C)cs2)nc1O)c1ccccc1 [Example 41, 4-Hydroxy-2-(4-methyl-1,3-thiazol-2-yl)-N-[(1S)-1-phenylpropyl]pyrimidine-5-carboxamide] | 100 to 1000 nM |
| Cc1cccc(-c2ncc(C(=O)NCc3ccc(-c4ccccc4)cc3)c(O)n2)n1 [Example 15, N-(biphenyl-4-ylmethyl)-4-hydroxy-2-(6-methylpyridin-2-yl)pyrimidine-5-carboxamide] | 100 to 1000 nM |
| O=C(NCc1ccc(C(F)(F)F)cc1)c1cnc(-c2ncccn2)nc1O [Example 23, 4-Hydroxy-N-[4-(trifluoromethyl)benzyl]-2,2′-bipyrimidine-5-carboxamide] | 100 to 1000 nM |
| O=C(O)CNC(=O)c1cnc(-n2cccn2)nc1O [Example 104, N-{[4-hydroxy-2-(1H-pyrazol-1-yl)pyrimidin-5-yl]carbonyl}glycine] | 1000 to 10000 nM |
| Cc1nc(-c2ncc(C(=O)NC(c3ccccc3)c3ccccc3)c(O)n2)cs1 [Example 39, N-(diphenylmethyl)-4-hydroxy-2-(2-methyl-1,3-thiazol-4-yl)pyrimidine-5-carboxamide] | 10 to 100 nM |
| O=C(NC(c1ccccc1)c1ccccc1)c1cnc(-n2cncn2)nc1O [Example 46, N-(diphenylmethyl)-4-hydroxy-2-(1H-1,2,4-triazol-1-yl)pyrimidine-5-carboxamide] | 100 to 1000 nM |
| CC(C)CC(NC(=O)c1cnc(-c2cccnn2)nc1O)c1ccc(C#N)cc1 (single isomer, unassigned) [Example 159, N-[1-(4-cyanophenyl)-3-methylbutyl]-4-hydroxy-2-(pyridazin-3-yl)pyrimidine-5-carboxamide] | 10 to 100 nM |
| Cc1nc(-c2ncc(C(=O)NCc3ccc(-c4ccccc4)cc3)c(O)n2)cs1 [Example 30, N-(biphenyl-4-ylmethyl)-4-hydroxy-2-(2-methyl-1,3-thiazol-4-yl)pyrimidine-5-carboxamide] | 10 to 100 nM |
| O=C(NCc1ccc(C(F)(F)F)cc1F)c1cnc(-n2cccn2)nc1O [Example 68, N-[2-fluoro-4-(trifluoromethyl)benzyl]-4-hydroxy-2-(1H-pyrazol-1-yl)pyrimidine-5-carboxamide] | 10 to 100 nM |
| COc1ccc(C(NC(=O)c2cnc(-c3cccnn3)nc2O)c2cccc(C)n2)c(OC)c1 (stereo not drawn) [Example 115, N-[(2,4-Dimethoxyphenyl)(6-methylpyridin-2-yl)methyl]-4-hydroxy-2-pyridazin-3-ylpyrimidine-5-carboxamide] | ≤ 10 nM |
| C[C@H](NC(=O)c1cnc(-c2cccnn2)nc1O)c1ccc(Br)cc1 [Example 25, N-[(1S)-1-(4-bromophenyl)ethyl]-4-hydroxy-2-pyridazin-3-ylpyrimidine-5-carboxamide] | ≤ 10 nM |
| O=C(O)c1ccc(-c2ncc(C(=O)NCc3ccc(F)cc3)c(O)n2)nc1 [Example 3, 6-(5-{[(4-Fluorobenzyl)amino]carbonyl}-4-hydroxypyrimidin-2-yl)nicotinic acid] | 10 to 100 nM |
| COc1ccc(C(NC(=O)c2cnc(-c3cccnn3)nc2O)c2cccc(C#N)c2)cc1 (single isomer, unassigned) [Example 148, N-[(3-cyanophenyl)(4-methoxyphenyl)methyl]-4-hydroxy-2-(pyridazin-3-yl)pyrimidine-5-carboxamide] | ≤ 10 nM |
| CC(NC(=O)c1cnc(-n2cccn2)nc1O)c1ccc(C(F)(F)F)nc1 (single isomer, unassigned) [Example 141, 4-hydroxy-2-(1H-pyrazol-1-yl)-N-{1-[6-(trifluoromethyl)pyridin-3-yl]ethyl}pyrimidine-5-carboxamide] | ≤ 10 nM |

Results, then the molecule that gave them:

| IC50 | Compound |
| --- | --- |
| ≤ 10 nM | C[C@H](NC(=O)c1cnc(-c2cccnn2)nc1O)c1ccc(Oc2ccccc2)cc1 [Example 137, 4-hydroxy-N-[(1S)-1-(4-phenoxyphenyl)ethyl]-2-(pyridazin-3-yl)pyrimidine-5-carboxamide] |
| ≤ 10 nM | CC(C)CC(NC(=O)c1cnc(-c2cccnn2)nc1O)c1ccc(C#N)cc1 (single isomer, unassigned) [Example 158, N-[1-(4-cyanophenyl)-3-methylbutyl]-4-hydroxy-2-(pyridazin-3-yl)pyrimidine-5-carboxamide] |
| ≤ 10 nM | Cc1ccc([C@H](C)NC(=O)c2cnc(-n3cccn3)nc2O)cc1 [Example 79, 4-Hydroxy-N-[(1S)-1-(4-methylphenyl)ethyl]-2-(1H-pyrazol-1-yl)pyrimidine-5-carboxamide] |
| ≤ 10 nM | O=C(NCc1ccc(-c2ccccc2)cc1)c1cnc(-c2cccnn2)nc1O [Example 28, N-(biphenyl-4-ylmethyl)-4-hydroxy-2-pyridazin-3-ylpyrimidine-5-carboxamide] |
| ≤ 10 nM | COc1ccc(C(NC(=O)c2cnc(-c3cccnn3)nc2O)c2cccc(C)n2)c(OC)c1 (single isomer, unassigned) [Example 149, N-[(2,4-dimethoxyphenyl)(6-methylpyridin-2-yl)methyl]-4-hydroxy-2-(pyridazin-3-yl)pyrimidine-5-carboxamide] |
| ≤ 10 nM | COc1ccc([C@H](C)NC(=O)c2cnc(-n3cc(C)cn3)nc2O)cc1 [Example 134, 4-hydroxy-N-[(1S)-1-(4-methoxyphenyl)ethyl]-2-(4-methyl-1H-pyrazol-1-yl)pyrimidine-5-carboxamide] |
| ≤ 10 nM | O=C(NCc1nc2ccccc2s1)c1cnc(-n2cccn2)nc1O [Example 55, N-(1,3-benzothiazol-2-ylmethyl)-4-hydroxy-2-(1H-pyrazol-1-yl)pyrimidine-5-carboxamide] |
| ≤ 10 nM | Cc1ccc(Oc2ccc(CNC(=O)c3cnc(-n4cccn4)nc3O)cc2)cc1 [Example 97, 4-hydroxy-N-[4-(4-methylphenoxy)benzyl]-2-(1H-pyrazol-1-yl)pyrimidine-5-carboxamide] |
| ≤ 10 nM | O=C(NC1c2ccccc2-c2ccccc21)c1cnc(-n2cccn2)nc1O [Example 102, N-9H-fluoren-9-yl-4-hydroxy-2-(1H-pyrazol-1-yl)pyrimidine-5-carboxamide] |
| ≤ 10 nM | O=C(NC(c1ccccc1)c1ccccn1)c1cnc(-c2cccnn2)nc1O (stereo not drawn) [Example 136, 4-hydroxy-N-[phenyl(pyridin-2-yl)methyl]-2-pyridazin-3-ylpyrimidine-5-carboxamide trifluoroacetate (salt)] |
| ≤ 10 nM | O=C(NCc1ccc(C(F)(F)F)cc1)c1cnc(-n2cccn2)nc1O [Example 54, 4-Hydroxy-2-(1H-pyrazol-1-yl)-N-[4-(trifluoromethyl)benzyl]pynmidine-5-carboxamide] |
| ≤ 10 nM | COc1cccc([C@H](C)NC(=O)c2cnc(-n3cccn3)nc2O)c1 [Example 126, 4-hydroxy-N-[(1S)-1-(3-methoxyphenyl)ethyl]-2-(1H-pyrazol-1-yl)pyrimidine-5-carboxamide] |
| ≤ 10 nM | COc1ccc(C(NC(=O)c2cnc(-c3cccnn3)nc2O)c2ccc(OC(F)(F)F)cc2)cc1 (single isomer, unassigned) [Example 152, 4-hydroxy-N-{(4-methoxyphenyl)[4-(trifluoromethoxy)phenyl]methyl}-2-(pyradazin-3-yl)pyrimidine-5-carboxamide] |
| ≤ 10 nM | O=C(N[C@H](c1ccccc1)[C@H](O)c1ccccc1)c1cnc(-n2cccn2)nc1O [Example 127, 4-hydroxy-N-[(1R,2R)-2-hydroxy-1,2-diphenylethyl]-2-(1H-pyrazol-1-yl)pyrimidine-5-carboxamide] |
| ≤ 10 nM | O=C(NCc1ccc(-c2ccccc2F)nc1)c1cnc(-n2cccn2)nc1O [Example 106, N-{[6-(2-fluorophenyl)pyridin-3-yl]methyl}-4-hydroxy-2-(1H-pyrazol-1-yl)pyrimidine-5-carboxamide] |
| ≤ 10 nM | COc1ccc(C(NC(=O)c2cnc(-c3cccnn3)nc2O)c2ccc(C#N)cc2)c(OC)c1 (single isomer, unassigned) [Example 154, N-[(4-cyanophenyl)(2,4-dimethoxyphenyl)methyl]-4-hydroxy-2-(pyridazin-3-yl)pyrimidine-5-carboxamide] |
| ≤ 10 nM | COc1ccc(C(NC(=O)c2cnc(-c3cccnn3)nc2O)c2ccc3c(c2)CCO3)cc1 (single isomer, unassigned) [Example 164, N-[2,3-dihydro-1-benzofuran-5-yl(4-methoxyphenyl)methyl]-4-hydroxy-2-(pyridazin-3-yl)pyrimidine-5-carboxamide] |
| ≤ 10 nM | O=C(c1ccccc1)c1ccc(CNC(=O)c2cnc(-n3cccn3)nc2O)cc1 [Example 95, N-(4-benzoylbenzyl)-4-hydroxy-2-(1H-pyrazol-1-yl)pyrimidine-5-carboxamide] |
